In patent US10849863B2, “Compounds for treating cancer, for administering, and for pharmaceutical compositions” (UNIVERSITY OF LOUISVILLE RESEARCH FOUNDATION, INC., priority 2011, dated 2020):

How the values were obtained:
HeLa cells [1] = assay: Clonogenic viability assay, HeLa cells; format: cell-based, human; conditions: for colony formation (clonogenic cytotoxicity): Hela cells (paclitaxel sensitive), colonies counted after 10 days (FIG. 6A)
Protocol: (§1) Clonogenic assays are used to determine the impact of a test compositions on the ability of cells to replicate. Cells are plated at cloning densities (100 and 500 cells per well in a 6-well plate; 3 wells of each cell number), and allowed to attach and stabilize overnight. Cells are then treated in dose-response experiments with test composition(s) (one concentration of test composition per plate) and incubated for 7-10 days to allow colonies of >30 cells to form. Colonies are stained with crystal violet and counted. Colony forming ability is then calculated as a percent of control by setting the mean number of colonies per well of cells treated with vehicle (0.1% DMSO) equal to 100 percent.

A375 cells [2] = assay: Mitotic index and mitotic catastrophe index determination (mitotic spread assay), A375 cells; format: cell-based, human; conditions: selected concentrations (1-10 μM), eighteen hours, among T-1 to T-9 (FIG. 3)
Protocol: Cells were harvested for mitotic index analysis by trypsinization. Media, wash, and trypsinized cells were collected together and centrifuged to pellet all the cells. Cells were resuspended in 150 mL serum free media and 2.5 mL 0.4% KCl was added. The suspension was incubated for 10 minutes at 37° C. Methanol:acetic acid fixative solution (3:1, v/v) was then added to 2% (v/v) and cells were collected by centrifugation. Cells were resuspended in 2.5 mL fixative solution and fixed at room temperature for 20 minutes. Samples were centrifuged; pellets were resuspended in 0.5 mL fixative and chilled on ice for one hour. […] Slides were examined under a microscope and at least 200 cells were counted on each slide for determination of mitotic index and mitotic catastrophe index. Only cells with distinct interphase nuclei appearance (panel Q from FIG. 2), metaphase spread appearance (panel S from FIG. 2), or mitotic catastrophe appearance (panel T from FIG. 2) were counted. Mitotic index and mitotic catastrophe index were determined using the following formula: Mitotic index=(cells with mitotic spread appearance as exemplified in panel S of FIG. 2)/(total number of counted cells) Mitotic catastrophe index=(cells with mitotic catastrophe appearance as exemplified in panel T of FIG. 2)/(total number of counted cells)
Three independent experiments were analyzed. […]

HeLa cells [3] = assay: Mitotic index and mitotic catastrophe index determination (mitotic spread assay), HeLa cells; format: cell-based, human; conditions: for percent of nuclei present as clean mitotic spreads (mitotic index) / percentage of nuclei presenting as mitotic catastrophe: 60 μM T-8 or 10 μM T-3, 24 h, vs DMSO control, p<0.05 (FIG. 4)
Protocol: Cells were harvested for mitotic index analysis by trypsinization. Media, wash, and trypsinized cells were collected together and centrifuged to pellet all the cells. Cells were resuspended in 150 mL serum free media and 2.5 mL 0.4% KCl was added. The suspension was incubated for 10 minutes at 37° C. Methanol:acetic acid fixative solution (3:1, v/v) was then added to 2% (v/v) and cells were collected by centrifugation. Cells were resuspended in 2.5 mL fixative solution and fixed at room temperature for 20 minutes. Samples were centrifuged; pellets were resuspended in 0.5 mL fixative and chilled on ice for one hour. Aliquots of the suspensions were dropped onto slides (two slides per sample), air dried, and stained with Wright Giemsa solution (States et al., Toxicol. Appl. Pharmacol., Vol. 180, pages 83-91 (2002); Taylor et al., J. Pharmacol. Exp. Ther., Vol. 318, pages 142-151 (2006)). Slides were examined under a microscope and at least 200 cells were counted on each slide for determination of mitotic index and mitotic catastrophe index. Only cells with distinct interphase nuclei appearance (panel Q from FIG. 2), metaphase spread appearance (panel S from FIG. 2), or mitotic catastrophe appearance (panel T from FIG. 2) were counted. Mitotic index and mitotic catastrophe index were determined using the following formula: Mitotic index=(cells with mitotic spread appearance as exemplified in panel S of FIG. 2)/(total number of counted cells) Mitotic catastrophe index=(cells with mitotic catastrophe appearance as exemplified in panel T of FIG. 2)/(total number of counted cells)
Three independent experiments were analyzed. DAPI stain in mounting media (Molecular Probes) added directly to the slides was used to identify DNA in interphase nuclei, mitotic spreads, mitotic catastrophe, and nuclear fragmentation by fluorescence microscopy.
Test compositions T-1 to T-9 in Table 1 were tested for their ability to induce mitotic arrest using a mitotic spread assay because it can also be used to score for mitotic catastrophe (Taylor et al., J. Pharmacol. Exp. Ther., Vol. 318, Pages 142-151 (2006); Taylor et al., Toxicol. Appl. Pharmacol., Vol. 230, Pages 235-246 (2008)). […] In these tests, a single concentration of each test composition was tested based on cytotoxicity results of FIG. 1 and on results of observational studies to determine the dose and time course of morphological changes induced (data not shown). The concentrations chosen were the minimum concentrations required to induce <10% survival and morphological changes at 16-24 hours.

SK-MEL-28 cells [4] = assay: Visual assessment of cytotoxicity, SK-MEL-28 cells; format: cell-based, human; conditions: for rounded up cells in mitosis (visual assessment): SK-MEL-28 cells (paclitaxel resistant), 24-well plate (FIG. 5B)
From the text: (§2) The cytotoxicity of the compounds were initially assessed visually and by photomicroscopy. Visual inspection of dose response experiments over a protracted time course provides valuable information on the responses of cells to the treatments. Phase contrast microscopy allows one to assess whether cells are undergoing mitotic arrest and/or apoptosis by their altered morphology. Mitotic cells rounded up with smooth membranes and often condensed chromosomes aligned at a metaphase plate were clearly visible. […] Cells were plated in 24-well plates and allowed to attach and stabilize overnight. Cells were then treated with compounds in dose response and photomicrographs were taken at various time points over 2 days. Photographs were assembled in composite figures showing dose response at a given time point.

HeLa cells [5] = assay: Visual assessment of cytotoxicity, HeLa cells; format: cell-based, human; conditions: for rounded up cells in mitosis (visual assessment): HeLa cells (paclitaxel sensitive), 24-well plate (FIG. 5A)
From the text: as §2

SK-MEL-28 cells [6] = assay: Clonogenic viability assay, SK-MEL-28 cells; format: cell-based, human; conditions: SK-MEL-28 cells (paclitaxel resistant); colonies counted after 10 days (FIG. 6B)
Protocol: as §1

GM0637 cells [7] = assay: Visual assessment of cytotoxicity, GM0637 cells; format: cell-based; conditions: GM0637 (SV40-transformed human skin fibroblasts); 49 h (FIG. 9)
From the text: as §2

GM0637 cells [8] = assay: AlamarBlue viability assay, GM0637 cells; format: cell-based, human; conditions: 32 h (FIG. 10)
Protocol: (§3) The method used for the viability assay follows. Cells were seeded in 96-well plates for measuring cell growth during treatment by the tested compound using the AlamarBlue fluorescence assay (Biosource International, Inc., Camarillo, Calif.). AlamarBlue (resazurin) is a soluble, non-toxic dye used to monitor the functional electron transport chain of a viable cell by reduction of the dye from its oxidized, non-fluorescent (blue) state to the reduced, fluorescent (pink) state (resorufin). AlamarBlue was added six hours prior to the desired time point in an amount equal to 10% (v/v) of the culture volume, and the plates were returned to the incubator. At the end of the six hour incubation, the amount of AlamarBlue reduction was measured using a fluorometric plate reader ([…]). The plate reader was blanked by reading the fluorescence of cell free medium supplemented with AlamarBlue (States et al., Toxicol. Appl. Pharmacol., Vol. 180, pages 83-91 (2002)). Data are reported as a percentage of the untreated control. Three independent experiments were analyzed and results are shown as average±standard deviation.

tGM24 cells [9] = assay: Visual assessment of cytotoxicity, tGM24 cells; format: cell-based, human
From the text: as §2

HeLa cells [10] = assay: AlamarBlue viability assay, HeLa cells; format: cell-based, human; conditions: for effectiveness at reducing viability (Alamar Blue), rank among T-8, T-13, T-14: 32 h (FIG. 8A)
Protocol: (§4) The test compositions in Table 1 were tested first for their ability to induce cytotoxicity in dose response curves using an AlamarBlue assay using two cancer cell lines.
as §3

A375 cells [11] = assay: AlamarBlue viability assay, A375 cells; format: cell-based, human; conditions: 32 h (FIG. 8B)
Protocol: as §4, §3

SK-MEL-28 cells [12] = assay: AlamarBlue viability assay, SK-MEL-28 cells; format: cell-based, human; conditions: 32 h (FIG. 10)
Protocol: as §3

tGM24 cells [13] = assay: AlamarBlue viability assay, tGM24 cells; format: cell-based, human; conditions: 32 h (FIG. 10)
Protocol: as §3

[14] = tGM24 normal diploid cells, 49 h (FIG. 9)

CCCCOc1ccc(NC2=NC3(CCCCC3)N=C(N)N2)cc1 [T-3]
colony formation (clonogenic cytotoxicity) (HeLa cells [1]): decreased colony formation | mitotic index (A375 cells [2]): highest mitotic index | percent of nuclei present as clean mitotic spreads (mitotic index) (HeLa cells [3]): increased | percentage of nuclei presenting as mitotic catastrophe (HeLa cells [3]): higher percentage | mitotic index (HeLa cells [3]; selected concentrations (1-10 μM), twice the concentration used for A375, eighteen hours, among T-1 to T-9 (FIG. 3)): highest mitotic index | rounded up cells in mitosis (visual assessment) (SK-MEL-28 cells [4]): accumulate | rounded up cells in mitosis (visual assessment) (HeLa cells [5]): accumulate | colony formation (clonogenic cytotoxicity) (SK-MEL-28 cells [6]): decreased colony formation

Cl.OC(CNC1CCCC1)COCCOc1ccc(Br)cc1 (racemic) [T-8]
accumulation of mitotic cells and apoptotic cells (visual assessment) (GM0637 cells [7]): accumulated | colony formation (clonogenic cytotoxicity) (HeLa cells [1]): decreased colony formation | cytotoxicity (Alamar Blue), sensitivity compared across cell lines (GM0637 cells [8]): moderate sensitivity | percent of nuclei present as clean mitotic spreads (mitotic index) (HeLa cells [3]): decreased | percentage of nuclei presenting as mitotic catastrophe (HeLa cells [3]): higher percentage | accumulation of mitotic cells and apoptotic cells (visual assessment) (SK-MEL-28 cells [4]; SK-MEL-28 (paclitaxel resistant human melanoma), 49 h (FIG. 9)): accumulated | accumulation of mitotic cells and apoptotic cells (visual assessment) (HeLa cells [5]; HeLa (paclitaxel sensitive human cervical carcinoma), 49 h (FIG. 9)): accumulated | selectivity for carcinoma cells and transformed cells compared to normal diploid cells (tGM24 cells [9]; SK-MEL-28, HeLa, GM0637 vs tGM24, visual assessment (FIG. 9)): selectivity of T-8 for carcinoma cells and transformed cells | accumulation of mitotic cells and apoptotic cells (visual assessment) (tGM24 cells [9]; tGM24 (telomerase immortalized human diploid skin fibroblasts), 49 h (FIG. 9)): not in tGM24 | increase in cell number (visual assessment) (tGM24 cells [9]; tGM24, 49 h (FIG. 9)): less apparent | cell death of normal diploid cells (visual assessment) (tGM24 cells [9]; [14]): not observed | growth of normal diploid cells (visual assessment) (tGM24 cells [9]; [14]): appeared to be inhibited | effectiveness at reducing viability (Alamar Blue), rank among T-8, T-13, T-14 (HeLa cells [10]): most effective | cytotoxicity (Alamar Blue), sensitivity compared across cell lines (HeLa cells [10]; 32 h (FIG. 10)): most effective | colony formation (clonogenic cytotoxicity) (SK-MEL-28 cells [6]): decreased colony formation | effectiveness at reducing viability (Alamar Blue), rank among T-8, T-13, T-14 (A375 cells [11]): most effective | cytotoxicity (Alamar Blue), sensitivity compared across cell lines (SK-MEL-28 cells [12]): moderate sensitivity | cytotoxicity (Alamar Blue), sensitivity compared across cell lines (tGM24 cells [13]): relatively resistant

CCCCOc1ccc(NC2=NC3(CCCC3)N=C(N)N2)cc1 [T-10]
colony formation (clonogenic cytotoxicity) (HeLa cells [1]): decreased colony formation | rounded up cells in mitosis (visual assessment) (SK-MEL-28 cells [4]): at slightly higher concentrations | rounded up cells in mitosis (visual assessment) (HeLa cells [5]): at slightly higher concentrations | colony formation (clonogenic cytotoxicity) (SK-MEL-28 cells [6]): decreased colony formation

CCc1ccc(OCCOCC(O)CNC2CCCC2)cc1.Cl (racemic) [T-13]
effectiveness at reducing viability (Alamar Blue), rank among T-8, T-13, T-14 (HeLa cells [10]): followed by T-13 | effectiveness at reducing viability (Alamar Blue), rank among T-8, T-13, T-14 (A375 cells [11]): followed by T-13

COc1cccc(NC2=NC3(CCCCC3)N=C(N)N2)c1 [T-11]
colony formation (clonogenic cytotoxicity) (HeLa cells [1]): decreased colony formation | relative effectiveness in decreasing colony formation (HeLa cells [1]; Hela cells, among T-3, T-8, T-10, T-11 (FIG. 6A)): least effective | rounded up cells in mitosis (visual assessment) (SK-MEL-28 cells [4]): less effect | rounded up cells in mitosis (visual assessment) (HeLa cells [5]): less effect

CC(C)NCC(O)COCCOc1ccc(Cl)cc1.Cl (racemic) [T-14]
effectiveness at reducing viability (Alamar Blue), rank among T-8, T-13, T-14 (HeLa cells [10]): least efficacy | effectiveness at reducing viability (Alamar Blue), rank among T-8, T-13, T-14 (A375 cells [11]): least efficacy

COc1ccc(NC2=NC3(CCCC3)N=C(N)N2)cc1 [T-12]
rounded up cells in mitosis (visual assessment) (SK-MEL-28 cells [4]): less effect | rounded up cells in mitosis (visual assessment) (HeLa cells [5]): less effect
